Assay results as given in ChEMBL document CHEMBL1140924, “Biomedical application of orexin/hypocretin receptor ligands in neuroscience” (J Med Chem, 2009).
≈ marks a conversion by molar mass, not a printed value. Values belong to the compound of their own block, whether it stands above or below them.

Assays:
[1] = Inhibition of galanin receptor at 10 uM
[2] = Inhibition of neuropeptide Y receptor at 10 uM
Orexin receptor type 2 [3] = biological target: T1, Orexin receptor type 2 (Homo sapiens, UniProt O43614); assay: Antagonist activity at OX2 receptor by FLIPR; assay type: functional
T1 sequence (O43614 whole entry): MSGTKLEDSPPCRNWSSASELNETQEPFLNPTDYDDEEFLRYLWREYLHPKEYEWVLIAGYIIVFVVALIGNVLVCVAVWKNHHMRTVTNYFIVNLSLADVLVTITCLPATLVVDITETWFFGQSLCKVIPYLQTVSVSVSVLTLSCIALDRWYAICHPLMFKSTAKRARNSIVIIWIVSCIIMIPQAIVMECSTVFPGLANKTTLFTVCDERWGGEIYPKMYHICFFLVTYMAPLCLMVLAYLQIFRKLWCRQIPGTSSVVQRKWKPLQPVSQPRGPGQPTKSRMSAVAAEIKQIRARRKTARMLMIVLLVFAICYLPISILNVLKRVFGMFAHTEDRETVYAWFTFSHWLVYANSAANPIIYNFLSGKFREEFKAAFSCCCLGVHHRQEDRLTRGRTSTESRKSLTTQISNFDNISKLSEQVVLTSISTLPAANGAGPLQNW

[4] = biological target: T2, Orexin/Hypocretin receptor type 1 (Homo sapiens, UniProt O43613); assay: Antagonist activity at OX1 receptor by FLIPR; assay type: functional
T2 sequence (O43613 whole entry): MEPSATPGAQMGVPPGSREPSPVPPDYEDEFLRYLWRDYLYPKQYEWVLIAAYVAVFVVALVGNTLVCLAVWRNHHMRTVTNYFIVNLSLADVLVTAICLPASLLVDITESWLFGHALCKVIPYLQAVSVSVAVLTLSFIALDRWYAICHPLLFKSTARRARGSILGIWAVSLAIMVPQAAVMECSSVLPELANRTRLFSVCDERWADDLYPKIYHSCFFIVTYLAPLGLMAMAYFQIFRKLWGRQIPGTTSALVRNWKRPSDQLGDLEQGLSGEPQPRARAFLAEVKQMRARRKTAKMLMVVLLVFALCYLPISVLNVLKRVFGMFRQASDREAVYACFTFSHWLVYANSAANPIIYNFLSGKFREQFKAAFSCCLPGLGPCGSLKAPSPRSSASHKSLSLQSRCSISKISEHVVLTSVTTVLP

[5] = biological target: T2, Orexin/Hypocretin receptor type 1; assay: Binding affinity to OX1 receptor
[6] = Selectivity for OX1 receptor over OX2 receptor
[7] = biological target: T2, Orexin/Hypocretin receptor type 1; assay: Antagonist activity at human OX1 receptor; assay type: functional
Orexin receptor type 2 [8] = biological target: T1, Orexin receptor type 2; assay: Antagonist activity at human OX2 receptor; assay type: functional
Orexin receptor type 2 [9] = biological target: T1, Orexin receptor type 2; assay: Binding affinity to OX2 receptor
[10] = biological target: Kappa-type opioid receptor (Homo sapiens) (UniProt P41145); assay: Inhibition of kappa opioid receptor at 10 uM
[11] = biological target: T3, Neuromedin-K receptor (Homo sapiens) (UniProt P29371); assay: Inhibition of neurokinin-3 receptor at 10 uM
T3 sequence (whole entry): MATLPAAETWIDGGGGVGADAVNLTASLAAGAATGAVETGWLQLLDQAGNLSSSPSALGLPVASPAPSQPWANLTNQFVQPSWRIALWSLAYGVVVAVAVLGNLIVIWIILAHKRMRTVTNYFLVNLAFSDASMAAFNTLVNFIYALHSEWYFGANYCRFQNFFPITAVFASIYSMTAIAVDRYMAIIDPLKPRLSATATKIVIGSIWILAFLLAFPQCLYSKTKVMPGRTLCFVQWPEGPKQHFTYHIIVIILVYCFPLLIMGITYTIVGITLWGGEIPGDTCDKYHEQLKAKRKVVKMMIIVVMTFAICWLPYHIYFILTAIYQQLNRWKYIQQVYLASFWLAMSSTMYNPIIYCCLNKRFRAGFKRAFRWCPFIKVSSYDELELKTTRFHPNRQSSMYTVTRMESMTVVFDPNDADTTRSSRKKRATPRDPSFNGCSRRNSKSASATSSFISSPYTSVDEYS

[12] = Selectivity of Ki for OX1 receptor to Ki for OX2 receptor
[13] = biological target: T4, Neuropeptide Y receptor type 1 (Homo sapiens) (UniProt P25929); assay: Inhibition of NPY1 receptor at 10 uM
T4 sequence (whole entry): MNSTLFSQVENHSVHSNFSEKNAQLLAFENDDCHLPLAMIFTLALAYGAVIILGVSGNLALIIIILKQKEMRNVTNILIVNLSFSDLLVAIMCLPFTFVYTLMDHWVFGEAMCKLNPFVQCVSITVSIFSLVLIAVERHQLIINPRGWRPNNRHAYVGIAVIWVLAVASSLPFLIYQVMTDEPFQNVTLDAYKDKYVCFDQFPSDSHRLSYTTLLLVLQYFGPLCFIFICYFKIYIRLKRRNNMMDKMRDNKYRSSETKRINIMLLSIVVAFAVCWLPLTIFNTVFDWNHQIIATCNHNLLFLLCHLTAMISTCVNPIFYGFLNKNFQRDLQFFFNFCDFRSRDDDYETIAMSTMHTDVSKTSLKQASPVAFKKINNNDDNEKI

[14] = biological target: T5, Orexin receptor type 2 (Homo sapiens) (UniProt O43614); assay: Antagonist activity at human OX2 receptor expressed in CHO cells assessed as inhibition of receptor-mediated calcium response by FLIPR; assay type: functional, cell-based
T5 sequence (whole entry): T1 sequence (O43614 whole entry)

[15] = biological target: T6, Orexin/Hypocretin receptor type 1 (Homo sapiens) (UniProt O43613); assay: Antagonist activity at human OX1 receptor expressed in CHO cells assessed as inhibition of receptor-mediated calcium response by FLIPR; assay type: functional, cell-based
T6 sequence (whole entry): T2 sequence (O43613 whole entry)

[16] = Aqueous solubility at pH 7; assay type: physicochemical

Chain of Kappa-type opioid receptor (Homo sapiens) (P41145 whole entry): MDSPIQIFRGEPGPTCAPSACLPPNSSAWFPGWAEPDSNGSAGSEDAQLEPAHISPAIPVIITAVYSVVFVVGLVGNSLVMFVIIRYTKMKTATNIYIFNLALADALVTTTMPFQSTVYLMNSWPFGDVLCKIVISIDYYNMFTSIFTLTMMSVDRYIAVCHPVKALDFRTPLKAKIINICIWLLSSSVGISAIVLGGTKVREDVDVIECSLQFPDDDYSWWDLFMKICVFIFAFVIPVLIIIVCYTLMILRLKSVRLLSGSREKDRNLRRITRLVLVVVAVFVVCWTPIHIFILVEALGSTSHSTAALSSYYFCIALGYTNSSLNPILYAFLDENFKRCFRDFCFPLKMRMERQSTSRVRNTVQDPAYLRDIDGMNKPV

Compound: CCc1nc(OC)c2n1CCN([C@@H](C(=O)NC)c1ccccc1)[C@H]2CCc1ccc(C)c(F)c1
IC50 (Orexin receptor type 2 [3]): 2 nM
IC50 [4]: 49 nM

Compound: CNC1CCCC1CN[C@H](C(=O)N1CCc2cc(OC)c(OC)cc2C1)C(C)(C)C (stereo partly drawn)
IC50 [7]: 3600 nM
IC50 (Orexin receptor type 2 [8]): 28 nM

Compound: CC1(C)OC[C@H](NC(=O)Nc2ccc(Br)cc2Br)[C@H](c2ccccc2)O1
Ki (Orexin receptor type 2 [9]): 3160 nM
inhibition [10]: < 40%
inhibition [11]: < 40%
Ratio [12]: 600
inhibition [13]: < 40%

Compound: Cn1ccc2cc(NC(=O)Nc3ccnc4ccccc34)ccc21
pKb [14]: 5.6
pKb [15]: 7.5

Compound: CN(C)c1ccc(NC(=O)Nc2ccnc3c(F)ccc(F)c23)cc1
Kd [5]: 4.47 nM
Ratio [6]: > 50

Compound: CCN(Cc1cccc(C)n1)C(=O)CN(c1cc(N(C)C)ccc1Cl)S(=O)(=O)c1ccc(OC)c(OC)c1
IC50 (Orexin receptor type 2 [3]): 5 nM
IC50 [4]: 17 nM

Compound: COc1cc2c(cc1OC)CN(C(=O)C(Cc1ccccc1)c1ccccc1)CC2 (racemic)
solubility [16]: 810 µg/mL (≈ 2020 µM)

Compound: COc1ccccc1NC(=O)N[C@H]1COC(C)(C)O[C@H]1c1ccccc1
Ki (Orexin receptor type 2 [9]): > 10000 nM
Ki [5]: 2510 nM
Ratio [12]: 4

Compound: CCc1nc(OC)c2n1CCN([C@@H](C(=O)NC)c1ccccc1)[C@H]2CCc1ccc(C)c(C)c1
IC50 (Orexin receptor type 2 [3]): 4 nM
IC50 [4]: 5 nM

The next lines start with the values.

inhibition [1]: < 30%
inhibition [2]: < 30%
Compound: COc1cc2c(cc1OC)CN(C(=O)[C@@H](NCc1ccncc1)C(C)(C)C)CC2

IC50 (Orexin receptor type 2 [3]): 17 nM
IC50 [4]: 19 nM
Compound: Cc1cccc(-c2sc(CCCO)nc2C(=O)N2C[C@H]3C[C@H]3[C@H]2CNC(=O)c2c(C)nc3sccn23)c1

IC50 (Orexin receptor type 2 [3]): 7 nM
IC50 [4]: 12 nM
Compound: CCN(Cc1ccn(C)n1)C(=O)CN(c1cc(N(C)C)ccc1Cl)S(=O)(=O)c1ccc(OC)c(OC)c1

Kd [5]: 5.13 nM
Ratio [6]: > 100
Compound: Cc1nc(C(=O)N2CCC[C@H]2Cc2nnc(-c3ccccc3)o2)c(-c2ccccc2F)s1

IC50 [7]: 5300 nM
IC50 (Orexin receptor type 2 [8]): 36 nM
Compound: COc1cc2c(cc1OC)CN(C(=O)C(Cc1ccccc1)C(=O)c1cc(Cl)cc(Cl)c1)CC2 (racemic)

Kd [5]: 26.9 nM
Ratio [6]: > 50
Compound: Cc1cc(NC(=O)Nc2ccc(N(C)C)cc2)c2cc(F)cc(F)c2n1

IC50 (Orexin receptor type 2 [3]): 4 nM
IC50 [4]: 6 nM
Compound: CCN(Cc1cc(C)n(C)n1)C(=O)CN(c1cc(N(C)C)ccc1Cl)S(=O)(=O)c1ccc(OC)c(OC)c1

Ki (Orexin receptor type 2 [9]): > 10000 nM
Ki [5]: 251 nM
Ratio [12]: 40
Compound: CC1(C)OC[C@H](NC(=O)Nc2ccc(Br)cc2)[C@H](c2ccccc2)O1
